Results reported in patent publication US20240083886A1, “HETEROCYCLIC GLP-1 AGONISTS” (Gasherbrum Bio, Inc., priority 2020, published 2024).

The compounds below were run against GLP-1 Receptor (Homo sapiens, UniProt P43220) (assay: GLP-1R agonist cAMP stimulation assay). Conditions: not given.
Chain of GLP-1 Receptor (P43220 24-463, species assumed): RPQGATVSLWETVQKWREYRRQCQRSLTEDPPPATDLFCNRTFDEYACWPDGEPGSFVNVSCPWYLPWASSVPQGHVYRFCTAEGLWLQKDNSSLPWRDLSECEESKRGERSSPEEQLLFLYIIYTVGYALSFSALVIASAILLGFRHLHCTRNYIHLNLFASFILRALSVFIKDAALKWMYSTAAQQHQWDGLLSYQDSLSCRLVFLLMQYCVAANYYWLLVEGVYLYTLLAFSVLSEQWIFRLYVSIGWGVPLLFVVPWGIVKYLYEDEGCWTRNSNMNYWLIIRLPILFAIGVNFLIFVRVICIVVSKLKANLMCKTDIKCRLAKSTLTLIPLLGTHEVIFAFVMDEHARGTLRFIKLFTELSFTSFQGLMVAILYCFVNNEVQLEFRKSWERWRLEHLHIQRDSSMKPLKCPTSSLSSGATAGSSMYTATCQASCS
Assay type: cell-based
Experimental: Activation of GLP-1 receptor is known to stimulate cyclic AMP (cAMP) production in cells which indicates primary coupling to the Gαs subunit of the G protein heterotrimeric complex.
To optimize functional activity directed toward Gαs coupling, a HEK293/CRE-Luc cell line developed by HDB stably expressing the GLP-1 Receptor was used. 200× concentration of compound working solutions were prepared (Agilent Technologies Bravo) with ½ log serial dilution in 384-well Echo LDV plate (Labcyte, Cat #LP-0200). 50 nL/well 200× concentration of compound working solutions were moved to 384-well white low volume plate (Greiner, Cat #784075) using Labcyte ECHO550. 1×10^5 cells/mL HEK293/GLP1R/CRE-LUC(HD Biosciences) cell suspensions prepared with assay buffer[DPBS containing 0.5 mM IBMX(Sigma, Cat #15879) and 0.1% BSA (GENVIEW, Cat #FA016-100 g)], 10 uL cell suspensions were added to each well of previous generated assay plate which already contains 50 nl compound at 200×concentration using ThermoFisher Multidrop Combi (1000 cells/well). Seal the plate and incubate at 37° C. with 5% CO2 for 30 min.
After incubation the cAMP assay signal was generated using cAMP dynamic 2 Kit (Cisbio). 5 μL cAMP-d2 working solution was added to each well, followed with 5 μL Anti-cAMP antibody-cryptate working solution added to each well using ThermoFisher Multidrop Combi. Incubate at room temperature for 1 hour protected from light. Read the fluorescence at 665 and 615 nm with Reader PerkinElmer EnVision.
% Activity=100%×(mean RLU of test sample−mean RLU of vehicle control)/(mean RLU of MAX control−mean RLU of vehicle control))
An EC50 of 44 nM was found for Fc1cc(Cl)ccc1Cc1nccc(OC2CCN(Cc3nc4cc(/C=C/c5cccnc5)ccc4n3C[C@@H]3CCO3)CC2)n1 [Compound 118a, 2-{[4-({2-[(4-chloro-2-fluorophenyl)methyl]pyrimidin-4-yl}oxy)piperidin-1-yl]methyl}-1-{[(2S)-oxetan-2-yl]methyl}-5-[(1E)-2-(pyridin-3-yl)ethenyl]-1H-1,3-benzodiazole] in this work.
An EC50 of 0.13 nM was found for Cc1nnc(-c2cc3nc(CN4CCC(Oc5nc(Cc6ccc(Cl)cc6F)ncc5F)CC4)n(C[C@@H]4CCO4)c3cn2)[nH]1 [Compound 170a, 2-[(4-chloro-2-fluorophenyl)methyl]-5-fluoro-4-[(1-{[6-(5-methyl-4H-1,2,4-triazol-3-yl)-3-{[(2S)-oxetan-2-yl]methyl}-3H-imidazo[4,5-c]pyridin-2-yl]methyl}piperidin-4-yl)oxy]pyrimidine] in this work.
An EC50 of 1.8 nM was found for Cc1cc(-c2ccc3c(c2)nc(CN2CCC(Oc4ccnc(Cc5ccc(Cl)cc5)n4)CC2)n3C[C@@H]2CCO2)[nH]n1 [Compound 131a, 2-{[4-({2-[(4-chlorophenyl)methyl]pyrimidin-4-yl}oxy)piperidin-1-yl]methyl}-5-(3-methyl-1H-pyrazol-5-yl)-1-{[(2S)-oxetan-2-yl]methyl}-1H-1,3-benzodiazole] in this work.
An EC50 of 0.22 nM was found for FC(F)(F)c1nnc(-c2ccc3c(c2)nc(CN2CCC(Oc4cccc(Cc5ccc(Cl)cc5)n4)CC2)n3C[C@@H]2CCO2)[nH]1 [Compound 136a, 2-{[4-({6-[(4-chlorophenyl)methyl]pyridin-2-yl}oxy)piperidin-1-yl]methyl}-1-{[(2S)-oxetan-2-yl]methyl}-5-[5-(trifluoromethyl)-4H-1,2,4-triazol-3-yl]-1H-1,3-benzodiazole] in this work.
An EC50 of 0.024 nM was found for N#Cc1nnc(-c2cc3nc(CN4CCC(Oc5nc(Cc6ccc(Cl)cc6F)ncc5F)CC4)n(C[C@@H]4CCO4)c3cn2)[nH]1 [Compound 193a, 5-(2-{[4-({2-[(4-chloro-2-fluorophenyl)methyl]-5-fluoropyrimidin-4-yl}oxy)piperidin-1-yl]methyl}-3-{[(2S)-oxetan-2-yl]methyl}-3H-imidazo[4,5-c]pyridin-6-yl)-4H-1,2,4-triazole-3-carbonitrile] in this work.
An EC50 of 0.79 nM was found for Cn1cc(-c2ccc3c(c2)nc(CN2CCC(Oc4ccnc(Cc5ccc(Cl)cc5)n4)CC2)n3C[C@@H]2CCO2)nn1 [Compound 130a, 2-{[4-({2-[(4-chlorophenyl)methyl]pyrimidin-4-yl}oxy)piperidin-1-yl]methyl}-5-(1-methyl-1H-1,2,3-triazol-4-yl)-1-{[(2S)-oxetan-2-yl]methyl}-1H-1,3-benzodiazole] in this work.
An EC50 of 1.5 nM was found for Fc1cc(Cl)ccc1Cc1ncc(F)c(OC2CCN(Cc3nc4cc(-c5nnc[nH]5)ncc4n3C[C@@H]3CCO3)CC2)n1 [Compound 169a, 2-[(4-chloro-2-fluorophenyl)methyl]-5-fluoro-4-({1-[(3-{[(2S)-oxetan-2-yl]methyl}-6-(4H-1,2,4-triazol-3-yl)-3H-imidazo[4,5-c]pyridin-2-yl)methyl]piperidin-4-yl}oxy)pyrimidine] in this work.

Same assay, conditions: HEK293/GLP1R/CRE-LUC cells, cAMP dynamic 2 Kit (Cisbio), 30 min incubation at 37° C.; read-out: EC50
An EC50 of 0.81 nM was found for Fc1cnc(Cc2ccc(Cl)cc2)nc1O[C@H]1CC[C@H](Cc2nc3cc(-c4nnc(C(F)(F)F)[nH]4)ccc3n2C[C@@H]2CCO2)CC1 [Compound 173a, 1-{[(2S)-oxetan-2-yl]methyl}-2-{[(1r,4r)-4-({2-[(4-chlorophenyl)methyl]-5-fluoropyrimidin-4-yl}oxy)cyclohexyl]methyl}-5-[5-(trifluoromethyl)-4H-1,2,4-triazol-3-yl]-1H-1,3-benzodiazole] in this work.
An EC50 of 0.2 nM was found for Fc1cc(Cl)ccc1Cc1cccc(OC2CCN(Cc3nc4cc(-c5nnn[nH]5)ncc4n3C[C@@H]3CCO3)CC2)n1 [Compound 176a, 2-[(4-chloro-2-fluorophenyl)methyl]-6-({1-[(3-{[(2S)-oxetan-2-yl]methyl}-6-(1H-1,2,3,4-tetrazol-5-yl)-3H-imidazo[4,5-c]pyridin-2-yl)methyl]piperidin-4-yl}oxy)pyridine] in this work.
An EC50 of 0.65 nM was found for Fc1cc(Cl)ccc1Cc1ncc(F)c(OC2CCN(Cc3nc4cc(-c5nnc(C(F)(F)F)[nH]5)nnc4n3C[C@@H]3CCO3)CC2)n1 [Compound 180a, 2-[(4-chloro-2-fluorophenyl)methyl]-5-fluoro-4-({1-[(7-{[(2S)-oxetan-2-yl]methyl}-3-[5-(trifluoromethyl)-4H-1,2,4-triazol-3-yl]-7H-imidazo[4,5-c]pyridazin-6-yl)methyl]piperidin-4-yl}oxy)pyrimidine] in this work.
An EC50 of 43 nM was found for O=C(Nc1ccc2c(c1)nc(CN1CCC(Oc3ccnc(Cc4ccc(Cl)cc4F)n3)CC1)n2C[C@@H]1CCO1)c1ccc(-c2ccccc2)nc1 [Compound 119a, N-(2-{[4-({2-[(4-chloro-2-fluorophenyl)methyl]pyrimidin-4-yl}oxy)piperidin-1-yl]methyl}-1-{[(2S)-oxetan-2-yl]methyl}-1H-1,3-benzodiazol-5-yl)-6-phenylpyridine-3-carboxamide] in this work.
An EC50 of 0.03 nM was found for Fc1cc(Cl)ccc1Cc1nccc(OC2CCN(Cc3nc4cc(-c5nnc(C(F)(F)F)[nH]5)ncc4n3C[C@@H]3CCO3)CC2)n1 [Compound 138a, 2-[(4-chloro-2-fluorophenyl)methyl]-4-({1-[(3-{[(2S)-oxetan-2-yl]methyl}-6-[5-(trifluoromethyl)-4H-1,2,4-triazol-3-yl]-3H-imidazo[4,5-c]pyridin-2-yl)methyl]piperidin-4-yl}oxy)pyrimidine] in this work.
An EC50 of 1.8 nM was found for O=c1[nH]c(-c2ccc3c(c2)nc(C[C@H]2CC[C@H](Oc4nc(Cc5ccc(Cl)cc5)ncc4F)CC2)n3C[C@@H]2CCO2)no1 [Compound 172a, 3-(1-{[(2S)-oxetan-2-yl]methyl}-2-{[(1r,4r)-4-({2-[(4-chlorophenyl)methyl]-5-fluoropyrimidin-4-yl}oxy)cyclohexyl]methyl}-1H-1,3-benzodiazol-5-yl)-4,5-dihydro-1,2,4-oxadiazol-5-one] in this work.
An EC50 of 15 nM was found for O=c1[nH]c(-c2ccc3c(c2)nc(CN2CCC(Oc4cccc(Cc5ccc(Cl)cc5F)n4)CC2)n3C[C@@H]2CCO2)no1 [Compound 109a] in this work.
An EC50 of over 300 nM was found for COc1cncc(-c2cc3nc(CN4CCC(Oc5cccc(Cc6ccc(Cl)cc6F)n5)CC4)n(C[C@@H]4CCO4)c3cn2)n1 [Compound 187a, 2-(2-{[4-({6-[(4-chloro-2-fluorophenyl)methyl]pyridin-2-yl}oxy)piperidin-1-yl]methyl}-3-{[(2S)-oxetan-2-yl]methyl}-3H-imidazo[4,5-c]pyridin-6-yl)-6-methoxypyrazine] in this work.
An EC50 of 0.18 nM was found for Cc1ccc(C(=O)Nc2ccc3c(c2)nc(CN2CCC(Oc4ccnc(Cc5ccc(Cl)cc5F)n4)CC2)n3C[C@@H]2CCO2)cn1 [Compound 113a, N-(2-{[4-({2-[(4-chloro-2-fluorophenyl)methyl]pyrimidin-4-yl}oxy)piperidin-1-yl]methyl}-1-{[(2S)-oxetan-2-yl]methyl}-1H-1,3-benzodiazol-5-yl)-6-methylpyridine-3-carboxamide] in this work.
An EC50 of 5.9 nM was found for O=C(Nc1ccc2c(c1)nc(CN1CCC(Oc3ccnc(Cc4ccc(Cl)cc4F)n3)CC1)n2C[C@@H]1CCO1)c1ccc(C2CC2)nc1 [Compound 117a, N-(2-{[4-({2-[(4-chloro-2-fluorophenyl)methyl]pyrimidin-4-yl}oxy)piperidin-1-yl]methyl}-1-{[(2S)-oxetan-2-yl]methyl}-1H-1,3-benzodiazol-5-yl)-6-cyclopropylpyridine-3-carboxamide] in this work.
An EC50 of 0.2 nM was found for Clc1ccc(Cc2nccc(OC3CCN(Cc4nc5cc(-c6nnn[nH]6)ccc5n4C[C@@H]4CCO4)CC3)n2)cc1 [Compound 107a, 2-{[4-({2-[(4-chlorophenyl)methyl]pyrimidin-4-yl}oxy)piperidin-1-yl]methyl}-1-{[(2S)-oxetan-2-yl]methyl}-5-(1H-1,2,3,4-tetrazol-5-yl)-1H-1,3-benzodiazole] in this work.
An EC50 of 3.4 nM was found for Fc1cc(Cl)ccc1COc1cccc(N[C@@H]2CCN(Cc3nc4cc(-c5nnc(C(F)(F)F)[nH]5)ncc4n3C[C@@H]3CCO3)C2)n1 [Compound 174a, 6-[(4-chloro-2-fluorophenyl)methoxy]-N-[(3R)-1-[(3-{[(2S)-oxetan-2-yl]methyl}-6-[5-(trifluoromethyl)-4H-1,2,4-triazol-3-yl]-3H-imidazo[4,5-c]pyridin-2-yl)methyl]pyrrolidin-3-yl]pyridin-2-amine] in this work.
An EC50 of 16 nM was found for O=C(O)c1ccc2c(c1)nc(CN1CCC(Oc3cccc(Cc4ccc(Cl)cc4F)n3)CC1)n2C[C@@H]1CCO1 [Compound 188a, 2-{[4-({6-[(4-chloro-2-fluorophenyl)methyl]pyridin-2-yl}oxy)piperidin-1-yl]methyl}-1-{[(2S)-oxetan-2-yl]methyl}-1H-1,3-benzodiazole-5-carboxylic acid] in this work.
An EC50 of 0.17 nM was found for Fc1cc(Cl)ccc1Cc1ncc(F)c(OC2CCN(Cc3nc4cc(-c5nnn[nH]5)ncc4n3C[C@@H]3CCO3)CC2)n1 [Compound 175a, 2-[(4-chloro-2-fluorophenyl)methyl]-5-fluoro-4-({1-[(3-{[(2S)-oxetan-2-yl]methyl}-6-(1H-1,2,3,4-tetrazol-5-yl)-3H-imidazo[4,5-c]pyridin-2-yl)methyl]piperidin-4-yl}oxy)pyrimidine] in this work.
